In the supplement of paper PMC10307832:

Assays:
Experiment in all cases: relative viability (nuclei count vs DMSO), 5 days (fraction); higher = more cells survive
Apatinib + Bortezomib = compound: N#CC1(c2ccc(NC(=O)c3cccnc3NCc3ccncc3)cc2)CCCC1 [Apatinib] + CC(C)C[C@H](NC(=O)[C@H](Cc1ccccc1)NC(=O)c1cnccn1)B(O)O [Bortezomib] (partner 0.002 µM)
Procedure, shortened: (§1)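 For relative viability, nuclei counts in treated wells were divided by those in vehicle wells. Lung cancer cell lines had been pin-tool dosed in 1536-well plates the day after seeding and cultured for 5 days, then fixed and stained in one step (final 0.05% Triton X-100, 1% formaldehyde, 1 ug/ml Hoechst) and imaged at 4×. Doses were one drug alone or a fixed anchor-drug dose plus five library-drug doses (not always all listed) in √10 steps, and values are duplicate-plate medians.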

Apatinib + Pemetrexed = compound: N#CC1(c2ccc(NC(=O)c3cccnc3NCc3ccncc3)cc2)CCCC1 [Apatinib] + Nc1nc2[nH]cc(CCc3ccc(C(=O)N[C@@H](CCC(=O)O)C(=O)O)cc3)c2c(=O)[nH]1 [Pemetrexed] (partner 0.2 µM)
Procedure, shortened: as §1

Apatinib + Tozasertib = compound: N#CC1(c2ccc(NC(=O)c3cccnc3NCc3ccncc3)cc2)CCCC1 [Apatinib] + Cc1cc(Nc2cc(N3CCN(C)CC3)nc(Sc3ccc(NC(=O)C4CC4)cc3)n2)n[nH]1 [Tozasertib] (partner 0.1 µM)
Procedure, shortened: as §1

Metformin + Dasatinib = compound: CN(C)C(=N)NC(=N)N [Metformin] + Cc1nc(Nc2ncc(C(=O)Nc3c(C)cccc3Cl)s2)cc(N2CCN(CCO)CC2)n1 [Dasatinib] (partner 0.075 µM)
Procedure, shortened: as §1

Row | Cell Line | relative viability (Apatinib + Bortezomib; first compound 0.08 µM) | relative viability (Apatinib + Bortezomib; first compound 0.253 µM) | relative viability (Apatinib + Bortezomib; first compound 0.8 µM) | relative viability (Apatinib + Bortezomib; first compound 2.53 µM) | relative viability (Apatinib + Bortezomib; first compound 8 µM) | relative viability (Apatinib + Pemetrexed; first compound 0.08 µM) | relative viability (Apatinib + Pemetrexed; first compound 0.253 µM) | relative viability (Apatinib + Pemetrexed; first compound 0.8 µM) | relative viability (Apatinib + Pemetrexed; first compound 2.53 µM) | relative viability (Apatinib + Pemetrexed; first compound 8 µM) | relative viability (Apatinib + Tozasertib; first compound 0.08 µM) | relative viability (Apatinib + Tozasertib; first compound 0.253 µM) | relative viability (Apatinib + Tozasertib; first compound 0.8 µM) | relative viability (Apatinib + Tozasertib; first compound 2.53 µM) | relative viability (Apatinib + Tozasertib; first compound 8 µM) | relative viability (Metformin + Dasatinib; first compound 10 µM) | relative viability (Metformin + Dasatinib; first compound 31.62 µM) | relative viability (Metformin + Dasatinib; first compound 100 µM) | relative viability (Metformin + Dasatinib; first compound 316.23 µM) | relative viability (Metformin + Dasatinib; first compound 1000 µM)
1 | COR-L 105 | 1.12 | 0.897 | 0.901 | 0.605 | 0.658 | 1.27 | 1.21 | 1.04 | 0.895 | 1.05 | 0.387 | 0.313 | 0.355 | 0.351 | 0.304 | 0.452 | 0.542 | 0.44 | 0.33 | 0.348
2 | HCC-15 | 1.09 | 1.03 | 0.972 | 0.88 | 0.992 | 0.245 | 0.225 | 0.217 | 0.192 | 0.167 | 0.376 | 0.48 | 0.357 | 0.248 | 0.163 | – | 0.625 | 0.581 | 0.556 | 0.584
3 | NCI-H1666 | 0.829 | 1.02 | 0.824 | 0.785 | 0.825 | 0.874 | 0.858 | 0.842 | 0.802 | 0.672 | 0.595 | 0.583 | 0.501 | 0.615 | 0.526 | 0.752 | 0.957 | 0.79 | 0.798 | 0.779
4 | HCC-78 | 0.539 | 0.525 | 0.618 | 0.505 | 0.476 | 0.871 | 0.934 | 0.854 | 0.588 | 0.909 | 0.477 | 0.333 | 0.535 | 0.289 | 0.317 | 0.405 | 0.469 | 0.459 | 0.549 | 0.327
5 | A-427 | 1.08 | 0.955 | 1.01 | 0.886 | 0.945 | 0.993 | 0.903 | 0.974 | 0.896 | 0.932 | 0.178 | 0.241 | 0.175 | 0.188 | 0.147 | 0.53 | 0.722 | 0.676 | 0.74 | 0.695
6 | NCI-H596 | 1.2 | 1 | 1.17 | 0.929 | 1.04 | 0.541 | 0.539 | 0.494 | 0.405 | 0.442 | 1.05 | 0.965 | 0.854 | 0.705 | 0.631 | 0.622 | 0.67 | 0.757 | 0.696 | 0.655
7 | EMC-BAC-2 | 1.08 | 0.987 | 1.07 | 0.843 | 0.918 | 0.452 | 0.465 | 0.422 | 0.406 | 0.401 | 0.334 | 0.307 | 0.245 | 0.229 | 0.194 | 0.37 | 0.312 | 0.323 | 0.334 | 0.395
8 | NCI-H2126 | 1.11 | 1.01 | 1.08 | 1.06 | 1.06 | 0.741 | 0.674 | 0.736 | 0.671 | 0.641 | 0.953 | 0.861 | 0.797 | 0.709 | 0.607 | 0.548 | 0.557 | 0.556 | 0.372 | 0.337
